Data published in ChEMBL document CHEMBL1201862, “PubChem BioAssay data set” (2004).
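In this assay, cells in 96-well plates receive the compound at five concentrations for 48 hours. Endpoints are linearly interpolated between the surrounding concentrations. GI50 marks 50% less growth.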 The source made the active and inactive calls. Cut-off read from the data, not from the text of the source: active = GI50 up to about 1.1 µM and inactive = higher.

Experiments:
Assay in all cases: NCI anticancer screen, dose series, 48 h
A498 = test system: A498
A549 = test system: A549
BT-549 = test system: BT-549
CAKI-1 = test system: CAKI-1
DU-145 = test system: DU-145
HCT-116 = test system: HCT-116
HCT-15 = test system: HCT-15
HOP-92 = test system: HOP-92
HT-29 = test system: HT-29
IGROV-1 = test system: IGROV-1
MOLT-4 = test system: MOLT-4
NCI-H23 = test system: NCI-H23
NCI/ADR-RES = test system: NCI/ADR-RES
OVCAR-3 = test system: OVCAR-3
OVCAR-4 = test system: OVCAR-4
OVCAR-8 = test system: OVCAR-8
SF-268 = test system: SF-268
SF-295 = test system: SF-295
SK-OV-3 = test system: SK-OV-3
SN12C = test system: SN12C

Compound: Cc1ccc(-c2nc(-c3nccc4ccccc34)oc2-c2ccccc2)cc1
- GI50 (A498): 30.5 µM (inactive)
- GI50 (A549): 40.6 µM (inactive)
- GI50 (BT-549): > 100 µM (inactive)
- GI50 (CAKI-1): 43.3 µM (inactive)
- GI50 (DU-145): 63.2 µM (inactive)
- GI50 (HCT-116): 20.2 µM (inactive)
- GI50 (HCT-15): 22.9 µM
- GI50 (HOP-92): 30.3 µM (inactive)
- GI50 (HT-29): 5.64 µM (inactive)
- GI50 (IGROV-1): > 100 µM (inactive)
- GI50 (MOLT-4): 25.2 µM (inactive)
- GI50 (NCI-H23): > 100 µM (inactive)
- GI50 (NCI/ADR-RES): 98.2 µM (inactive)
- GI50 (OVCAR-3): 56.1 µM (inactive)
- GI50 (OVCAR-4): > 100 µM (inactive)
- GI50 (OVCAR-8): 79.1 µM (inactive)
- GI50 (SF-268): 73.5 µM (inactive)
- GI50 (SF-295): 68.4 µM (inactive)
- GI50 (SK-OV-3): 68.9 µM (inactive)
- GI50 (SN12C): 24.8 µM (inactive)

Compound: Cc1ccc(N(C=O)c2c([N+](=O)[O-])cc([N+](=O)[O-])c3c2=[N+]([O-])CN=3)cc1
- GI50 (A498): 39.6 µM (inactive)
- GI50 (A549): > 100 µM (inactive)
- GI50 (BT-549): 18.7 µM (inactive)
- GI50 (CAKI-1): 32.3 µM (inactive)
- GI50 (DU-145): 27.2 µM (inactive)
- GI50 (HCT-116): 24.8 µM (inactive)
- GI50 (HCT-15): 15.4 µM
- GI50 (HOP-92): 16.2 µM (inactive)
- GI50 (HT-29): 49 µM (inactive)
- GI50 (IGROV-1): 38.8 µM (inactive)
- GI50 (MOLT-4): 23.9 µM (inactive)
- GI50 (NCI-H23): 23.5 µM (inactive)
- GI50 (NCI/ADR-RES): 30.7 µM (inactive)
- GI50 (OVCAR-3): 24.2 µM (inactive)
- GI50 (OVCAR-4): 30.9 µM (inactive)
- GI50 (OVCAR-8): 28.5 µM (inactive)
- GI50 (SF-268): 36 µM (inactive)
- GI50 (SF-295): 65.5 µM (inactive)
- GI50 (SK-OV-3): > 100 µM (inactive)
- GI50 (SN12C): 31.6 µM (inactive)

Compound: CCOc1ccc2c(c1)C(/C(C(Cl)=C(Cl)Cl)=[N+](/[O-])OC(=O)c1ccccc1)=N2
- GI50 (A498): > 100 µM (inactive)
- GI50 (A549): 47 µM (inactive)
- GI50 (BT-549): 25.4 µM (inactive)
- GI50 (CAKI-1): 32.6 µM (inactive)
- GI50 (DU-145): 47.2 µM (inactive)
- GI50 (HCT-116): 46 µM (inactive)
- GI50 (HCT-15): 50.2 µM
- GI50 (HOP-92): 38.1 µM (inactive)
- GI50 (HT-29): 61.2 µM (inactive)
- GI50 (MOLT-4): 39 µM (inactive)
- GI50 (NCI-H23): 48.6 µM (inactive)
- GI50 (NCI/ADR-RES): 57.3 µM (inactive)
- GI50 (OVCAR-3): 30.8 µM (inactive)
- GI50 (OVCAR-4): 23 µM (inactive)
- GI50 (OVCAR-8): 72.8 µM (inactive)
- GI50 (SF-268): 44.5 µM (inactive)
- GI50 (SF-295): 49.7 µM (inactive)
- GI50 (SK-OV-3): > 100 µM (inactive)
- GI50 (SN12C): 78.9 µM (inactive)

Compound: NC(CCC(=O)c1ccccn1)C(=O)O (centres undefined)
- GI50 (A498): > 100 µM (inactive)
- GI50 (A549): > 100 µM (inactive)
- GI50 (BT-549): > 100 µM (inactive)
- GI50 (CAKI-1): > 100 µM (inactive)
- GI50 (DU-145): > 100 µM (inactive)
- GI50 (HCT-116): > 100 µM (inactive)
- GI50 (HCT-15): > 100 µM
- GI50 (HOP-92): > 100 µM (inactive)
- GI50 (HT-29): > 100 µM (inactive)
- GI50 (IGROV-1): > 100 µM (inactive)
- GI50 (MOLT-4): > 100 µM (inactive)
- GI50 (NCI-H23): > 100 µM (inactive)
- GI50 (NCI/ADR-RES): > 100 µM (inactive)
- GI50 (OVCAR-3): > 100 µM (inactive)
- GI50 (OVCAR-4): > 100 µM (inactive)
- GI50 (OVCAR-8): > 100 µM (inactive)
- GI50 (SF-268): > 100 µM (inactive)
- GI50 (SF-295): > 100 µM (inactive)
- GI50 (SK-OV-3): > 100 µM (inactive)
- GI50 (SN12C): > 100 µM (inactive)

Compound: O=C(CSc1nc2ccc(Cl)cc2c(=O)n1-c1ccccc1)N/N=C1\C(=O)Nc2ccc(F)cc21
- GI50 (A498): 2.38 µM (inactive)
- GI50 (A549): 2.37 µM (inactive)
- GI50 (BT-549): 1.85 µM (inactive)
- GI50 (CAKI-1): 4.81 µM (inactive)
- GI50 (DU-145): 2.16 µM (inactive)
- GI50 (HCT-116): 2.02 µM (inactive)
- GI50 (HCT-15): 1.96 µM
- GI50 (HOP-92): 2.49 µM (inactive)
- GI50 (HT-29): 2.2 µM (inactive)
- GI50 (IGROV-1): 2.17 µM (inactive)
- GI50 (MOLT-4): 2.88 µM (inactive)
- GI50 (NCI-H23): 2.92 µM (inactive)
- GI50 (NCI/ADR-RES): 2.65 µM (inactive)
- GI50 (OVCAR-3): 1.89 µM (inactive)
- GI50 (OVCAR-4): 2.16 µM (inactive)
- GI50 (OVCAR-8): 1.69 µM (inactive)
- GI50 (SF-268): 2.82 µM (inactive)
- GI50 (SF-295): 4.2 µM (inactive)
- GI50 (SK-OV-3): 8.34 µM (inactive)
- GI50 (SN12C): 2.08 µM (inactive)
